Reference: patent publication US20250270198A1, “PYRIDONE COMPOUNDS AS TRPA1 INHIBITORS” (D. E. Shaw Research, LLC, priority 2022, published 2025)

Columns and labels:
human TRPA1 channel = human TRPA1 channel (Homo sapiens (Human), UniProt O75762); assay: TRPA1 inhibitor activity, automated patch clamp (SyncroPatch); format: cell-based; details: CHO cells inducibly expressing human TRPA1; currents elicited by carvacrol (300 μM), holding potential −60 mV; Table 4
Method: This assay was used to evaluate the disclosed compounds' inhibition activities against the human TRPA1 channel.
CHO cells inducibly expressing human TRPA1 were grown in DMEM containing 10% heat-inactivated FBS, 1 mM Sodium Pyruvate, 2 mM L-Glutamine, Zeocin (100 μg/ml) and Blasticidin (10 μg/ml). Expression was induced by addition of Doxycycline (1 μg/ml) 24 hours before experiments. Cells used for electrophysiology were plated in plastic culture flasks and grown at 37° C. in a 5% CO2-humidified tissue culture incubator per ChanPharm SOP. Stocks were maintained in cryogenic storage.
The cells were bathed in an extracellular solution containing 80 mM NaCl, 60 mM NMDG, 4 mM KCl, 2 mM CaCl2), 6 mM MgCl2, 5 mM Glucose. 10 mM HEPES, 3 mM HEDTA; pH adjusted to 7.4 with NaOH; 305-310 mOsm. All compounds were dissolved in DMSO at 30 mM. The internal solution contained 10 mM CsCl, 110 mM CsF, 10 mM NaCl, 10 mM EGTA, 10 mM HEPES, 4 mM MgATP, 0.25 mM NaGTP, 4 mM BAPTA; pH adjusted to 7.2 with CsOH; 285-290 mOsm. Compound stock solutions were freshly diluted with external solution to concentrations of 3 nM, 10 nM 30 nM, 100 nM, 300 nM, 1 μM, 3 μM, 10 μM, and 30 μM. The highest content of DMSO (0.1%) was present at 30 μM.
All experiments were performed at room temperature. Each cell acted as its own control. In preparation for a current recording session, intracellular solution (see above) was loaded into the intracellular compartments of the automated patch clamp platform SyncroPatch (Nanion) chip and the cell suspension was pipetted into the extracellular compartments. After establishment of a whole-cell configuration, membrane current recordings and compound application were enabled by means of the SyncroPatch. TRPA1 currents were elicited by application of carvacrol (300 μM) at a constant holding potential of −60 mV (see Table A below).
To determine IC50 values, AUC and peak values, obtained in the presence of a given compound concentration, were normalized to control values in absence of compound. Using DataControl384 (Nanion's proprietary software), IC50 values were derived by fitting the normalized data to the Hill equation.

hERG channel = hERG channel (Homo sapiens (Human), UniProt Q12809); assay: hERG activity, automated patch clamp (SyncroPatch); format: cell-based; details: CHO-K1 cells stably expressing hERG; tail current at −50 mV; compounds at 50 μM and 100 μM; Table 4
Method: This assay was used to evaluate the disclosed compounds' inhibition activities against the hERG channel.
CHO-K1 cells stably expressing hERG were grown in Ham's F-12 Medium with Glutamine containing 10% heat-inactivated FBS, 1% Penicillin/Streptomycin, Hygromycin (100 μg/ml), and G418 (100 μg/ml). Cells used for electrophysiology were plated in plastic culture flasks and grown at 37° C. in a 5% CO2-humidified incubator per ChanPharm SOP. Stocks were maintained in cryogenic storage.
The cells were bathed in an extracellular solution containing 140 mM NaCl, 4 mM KCl, 2 mM CaCl2), 1 mM MgCl2, 5 mM Glucose, and 10 mM HEPES; pH adjusted to 7.4 with NaOH; 295-305 mOsm. The internal solution contained 10 mM KCl, 110 mM KF, 10 mM NaCl, 10 mM EGTA, 10 mM HEPES; pH adjusted to 7.2 with KOH; 280-285 mOsm. All compounds were dissolved in DMSO at 30 mM. Compound stock solutions were freshly diluted with external solution to concentrations of 50 μM and 100 μM. The highest content of DMSO […].
All experiments were performed at room temperature. Each cell acted as its own control. In preparation for a recording session, intracellular solution (see above) was loaded into the intracellular compartments of the automated patch clamp platform SyncroPatch (Nanion) chip and the cell suspension was pipetted into the extracellular compartments. After establishment of a whole-cell configuration, membrane current recordings, and compound application were enabled by means of the SyncroPatch. hERG currents were elicited by a voltage pulse pattern with fixed amplitudes (depolarization: +20 mV amplitude, 300 ms duration; repolarization: −50 mV, 300 ms duration) repeated at 3 s intervals from a holding potential of −80 mV.
Data acquisition and analysis were performed using DataControl384 (Nanion's proprietary software). To determine the (percentage) inhibition, the last single pulse in the pulse train (i.e., the repolarization step to −50 mV; tail current) at a given compound concentration was used. AUC and peak values, obtained in the presence of compound, were normalized to control values in the absence of compound.

hERG channel, sequence (Q12809 whole entry): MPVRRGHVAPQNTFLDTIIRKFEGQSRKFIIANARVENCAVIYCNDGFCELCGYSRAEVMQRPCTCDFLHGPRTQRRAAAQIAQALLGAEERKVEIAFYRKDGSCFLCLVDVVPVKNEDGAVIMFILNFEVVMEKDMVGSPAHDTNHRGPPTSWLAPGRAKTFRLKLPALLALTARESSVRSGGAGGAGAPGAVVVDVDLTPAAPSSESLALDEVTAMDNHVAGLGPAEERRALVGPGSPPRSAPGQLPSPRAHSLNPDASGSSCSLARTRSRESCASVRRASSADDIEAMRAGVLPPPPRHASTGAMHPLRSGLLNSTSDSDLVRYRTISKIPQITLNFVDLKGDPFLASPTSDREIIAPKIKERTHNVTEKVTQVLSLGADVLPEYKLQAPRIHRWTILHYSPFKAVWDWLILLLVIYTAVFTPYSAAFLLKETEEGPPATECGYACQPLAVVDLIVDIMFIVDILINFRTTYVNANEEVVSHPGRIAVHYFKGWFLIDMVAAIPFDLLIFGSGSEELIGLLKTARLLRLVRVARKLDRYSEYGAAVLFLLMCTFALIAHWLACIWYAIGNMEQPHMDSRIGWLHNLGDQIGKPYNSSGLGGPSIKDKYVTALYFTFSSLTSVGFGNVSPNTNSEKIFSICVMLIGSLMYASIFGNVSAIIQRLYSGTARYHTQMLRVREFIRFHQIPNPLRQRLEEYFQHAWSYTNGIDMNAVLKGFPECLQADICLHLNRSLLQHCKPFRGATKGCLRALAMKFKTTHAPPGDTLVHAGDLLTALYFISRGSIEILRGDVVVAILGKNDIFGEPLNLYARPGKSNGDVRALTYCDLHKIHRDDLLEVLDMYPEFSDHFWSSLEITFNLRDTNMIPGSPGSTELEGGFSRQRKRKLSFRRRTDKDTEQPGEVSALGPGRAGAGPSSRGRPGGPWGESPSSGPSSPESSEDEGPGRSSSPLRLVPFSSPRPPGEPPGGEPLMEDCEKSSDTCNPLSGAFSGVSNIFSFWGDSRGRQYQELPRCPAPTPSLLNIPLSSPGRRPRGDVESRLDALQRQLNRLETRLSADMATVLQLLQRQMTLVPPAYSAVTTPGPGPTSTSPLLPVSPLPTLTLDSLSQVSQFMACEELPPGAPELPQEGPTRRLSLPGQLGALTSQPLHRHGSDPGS
human TRPA1 channel, sequence (O75762 whole entry): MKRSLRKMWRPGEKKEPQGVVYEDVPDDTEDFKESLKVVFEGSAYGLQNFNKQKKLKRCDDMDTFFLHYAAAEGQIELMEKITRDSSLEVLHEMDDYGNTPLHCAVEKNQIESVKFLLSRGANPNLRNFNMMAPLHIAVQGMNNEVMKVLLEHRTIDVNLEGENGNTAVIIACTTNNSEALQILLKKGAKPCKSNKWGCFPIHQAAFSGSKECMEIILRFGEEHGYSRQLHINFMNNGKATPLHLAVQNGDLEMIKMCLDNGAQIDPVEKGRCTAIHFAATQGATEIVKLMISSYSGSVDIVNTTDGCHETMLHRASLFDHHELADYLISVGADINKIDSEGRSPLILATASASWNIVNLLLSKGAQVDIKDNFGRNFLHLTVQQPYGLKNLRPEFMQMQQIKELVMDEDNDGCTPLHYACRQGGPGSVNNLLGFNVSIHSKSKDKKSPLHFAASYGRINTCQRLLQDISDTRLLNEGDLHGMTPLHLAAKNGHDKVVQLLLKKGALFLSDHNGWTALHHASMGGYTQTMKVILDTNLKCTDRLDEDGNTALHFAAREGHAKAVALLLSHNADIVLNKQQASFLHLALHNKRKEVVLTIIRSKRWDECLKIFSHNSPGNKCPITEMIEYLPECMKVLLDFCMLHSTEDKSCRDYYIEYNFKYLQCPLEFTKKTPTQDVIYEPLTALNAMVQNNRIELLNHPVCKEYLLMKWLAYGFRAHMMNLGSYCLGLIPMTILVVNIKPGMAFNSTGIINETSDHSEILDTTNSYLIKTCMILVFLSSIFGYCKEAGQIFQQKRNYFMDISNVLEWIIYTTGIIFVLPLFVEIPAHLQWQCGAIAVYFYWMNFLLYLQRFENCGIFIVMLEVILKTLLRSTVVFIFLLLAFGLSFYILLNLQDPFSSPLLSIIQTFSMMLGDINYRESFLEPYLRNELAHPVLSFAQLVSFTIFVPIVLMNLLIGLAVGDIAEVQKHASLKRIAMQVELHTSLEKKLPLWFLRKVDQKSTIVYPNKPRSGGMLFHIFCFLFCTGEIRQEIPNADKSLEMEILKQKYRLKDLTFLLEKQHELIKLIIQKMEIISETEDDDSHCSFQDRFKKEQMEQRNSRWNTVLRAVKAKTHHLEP

NC(=O)c1cc(Cl)c(=O)n(Cc2nc(CCc3ccc(Cl)cc3)no2)c1 [Compound 6, 5-chloro-1-((3-(4-chlorophenethyl)-1,2,4-oxadiazol-5-yl)methyl)-6-oxo-1,6-dihydropyridine-3-carboxamide]
IC50 (human TRPA1 channel): < 0.3 µM
IC50 (hERG channel): < 50 µM
